How the values were obtained:
[1] = tested on: KCHSC (Kochia scoparia); test: Outdoor plot trial, post-emergence treatment, visual evaluation of herbicidal activity; format: in vivo; conditions: Example B.I, outdoors
Experimental: (§1) Outdoors, crop plants were grown on plots of a size of from 5 to 10 m^2 on various soils and under various climatic conditions, and the natural presence of harmful plants and/or their seeds in the soil was utilized for the experiments. The treatment with the compositions according to the invention or the herbicides A) and B) applied individually was carried out after emergence of the harmful and the crop plants, in general at the 2- to 4-leaf stage. The active compounds or active compound combinations, formulated as WG, WP or EC, was carried out by the post-emergence method. After 2 to 8 weeks, visual evaluation was carried out in comparison with an untreated comparative group. […] In addition, the herbicidal activities of the compositions according to the invention exceed the expected values according to Colby.
(§2) If the observed activity values of the mixtures already exceed the formal sum of the values for the trials with individual applications, they also exceed the expected value according to Colby which is calculated using the following formula (cf. S. R. Colby; in Weeds 15 (1967) pp. 20 to 22):
(§3) The figures denote: • A, B=Activity of Components A and B in percent, at a dosage of a and b gram of ai/ha, respectively. • E=Expected value in % at a dosage of a+b gram of ai/ha.

[2] = tested on: CHEAL (Chenopodium album); test: as above; format: in vivo; conditions: outdoors
Experimental: as §1, §2, §3

[3] = tested on: PHBPU (Pharbitis purpurea); test: as above; format: in vivo; conditions: outdoors
Experimental: as §1, §2, §3

[4] = tested on: POROL (Portulaca oleracea); test: as above; format: in vivo; conditions: outdoors
Experimental: as §1, §2, §3

[5] = tested on: HORVS (Hordeum vulgaris); test: Outdoor plot trial, post-emergence treatment, damage to crop plant; format: in vivo; conditions: Example B.VI, 100 g of ai/ha
Experimental: as §1

[6] = tested on: TRZDU (Triticum davam); test: as above; conditions: in vivo
Experimental: as §1

[7] = tested on: BRAPL; test: Outdoor plot trial, post-emergence treatment, visual evaluation of herbicidal activity; format: in vivo; conditions: Example B.VII, 300 g of ai/ha, outdoors
Experimental: as §1, §2, §3

[8] = tested on: ZEAMX (Zea mays); test: Outdoor plot trial, post-emergence treatment, damage to crop plant; format: in vivo; conditions: Example B.VII, 300 g of ai/ha
Experimental: as §1

CS(=O)(=O)c1ccc(C(=O)C2C(=O)CCCC2=O)c(Cl)c1C1=NOCC1 [Compound A1]
KCHSC found ([1]; 25 g of ai/ha): 28%

Cc1cc(C(=O)C2C(=O)CCCC2=O)c(C)c2c1S(=O)(=O)CCC2Oc1ncccn1 (stereo not shown) [Compound A2]
CHEAL found ([2]; Example B.IV, 100 g of ai/ha): 34%
PHBPU found ([3]; Example B.II, 50 g of ai/ha): 65%
PHBPU found ([3]; Example B.III, 100 g of ai/ha): 45%
POROL found ([4]; Example B.V, 100 g of ai/ha): 0%

CC(C)(F)c1nc(N)nc(NC(CCc2ccccc2)C2CCC2)n1 (stereo not shown) [Compound B3]
CHEAL found ([2]; Example B.VI, 100 g of ai/ha): 30%
HORVS found [5]: 0%

COC(=O)c1ccc(I)cc1S(=O)(=O)[N-]C(=O)Nc1nc(C)nc(OC)n1.[Na+] [Compound B4]
POROL found ([4]; Example B.VIII, 2.5 g of ai/ha): 20%
TRZDU found [6]: 15%

CP(=O)(O)CCC(N)C(=O)O (stereo not shown) [Compound B2, glufosinate]
CHEAL found ([2]; Example B.IV, 500 g of ai/ha): 60%
PHBPU found ([3]; Example B.III, 500 g of ai/ha): 43%

CS(=O)(=O)c1ccc(C(=O)C2C(=O)CCCC2=O)c(Cl)c1COCC(F)(F)F [Compound A4]
POROL found ([4]; Example B.VIII, 25 g of ai/ha): 5%
TRZDU found [6]: 5%

N#Cc1cc(Br)c(O)c(Br)c1 [Compound B5, bromoxynil]
BRAPL found [7]: 0%
ZEAMX found [8]: 0%

COc1cc(OC)nc(NC(=O)NS(=O)(=O)c2ccc(NC=O)cc2C(=O)N(C)C)n1 [Compound B1]
KCHSC found ([1]; 30 g of ai/ha): 30%
KCHSC found ([1]; 60 g of ai/ha): 33%
PHBPU found ([3]; Example B.II, 30 g of ai/ha): 20%
POROL found ([4]; Example B.V, 30 g of ai/ha): 43%

Source: patent publication US7056863B1, “Synergistic herbicidal compositions herbicides from the group of the hydroxyphenylpyruvate dioxygenase inhibitors” (Aventis CropScience GmbH, priority 1999, dated 2006)
